Assay results from patent publication US4439426A, “Semisynthetic macrolidic antibiotics, intermediate compounds for their preparation and related pharmaceutical compositions containing them” (priority 1981, dated 1984).
Values after ≈ are worked out from the molar mass of the structure shown.

Key:
Salmonella typhy LRP 8 = assay: microbe, parasite or virus in culture; format: cell-based; details: LRP8, solid medium, read-out: Minimum inhibiting concentration
From the text: (§1) the bacteriostatic power, expressed as the minimum inhibiting concentration (MIC) against both aerobic and anaerobic, Gram positive and Gram negative, bacterial stocks: the related results are reported in the tables 2 and 3.

[1] = test system: Clostridium perfrigens ATCC 3624 LRP 206; assay: microbe, parasite or virus in culture; format: cell-based; details: ATCC3624, solid medium, anaerobic, read-out: Minimum inhibiting concentration
From the text: as §1

[2] = test system: Streptococcus faecalis subs. zymogenes ATCC 12958 LRP 61; assay: Bacteriostatic power in liquid medium (MIC); format: cell-based; details: Enterococcus faecalis, ATCC12958; liquid medium; read-out: Minimum inhibiting concentration
From the text: as §1

[3] = test system: Staphylococcus aureus ATCC 6538 P LRP 39; assay: Bacteriostatic power in liquid medium (MIC); format: cell-based; details: Staphylococcus aureus, ATCC6538; liquid medium; read-out: Minimum inhibiting concentration
From the text: as §1

[4] = test system: Streptococcus pyogenes ATCC 8668 LRP 34; assay: Bacteriostatic power in liquid medium (MIC); format: cell-based; details: Streptococcus pyogenes, ATCC8668; liquid medium; read-out: Minimum inhibiting concentration
From the text: as §1

[5] = test system: Streptococcus pneumoniae ATCC 6303 LRP 35; assay: Bacteriostatic power in liquid medium (MIC); format: cell-based; details: Streptococcus pneumoniae, ATCC6303; liquid medium; read-out: Minimum inhibiting concentration
From the text: as §1

[6] = test system: Corynebacterium diphteriae LRP 24; assay: Bacteriostatic power in liquid medium (MIC); format: cell-based; details: Corynebacterium, LRP24; liquid medium; read-out: Minimum inhibiting concentration
From the text: as §1

[7] = Stability in acidic environment at 25° C. (half-life of initial microbiological activity); format: physicochemical; details: aqueous solution
Method: Stability in acidic environnment at 25° C. of the novel
Note: t 1/2 represents the time for reducing to one half the initial powe
of the antibiotic determined by microbiological method through diffusion
on a plate using the test stock Microccocus luteus (Sarcina lutea) ATCC

Escherichia coli LRP 50 = assay: Bacteriostatic power in solid medium (MIC); format: cell-based; details: Escherichia coli, LRP50; solid medium; read-out: Minimum inhibiting concentration
From the text: as §1

[8] = test system: Fusobacteriumnecrophroum ATCC 27852 LRP 210; assay: Bacteriostatic power in solid medium (MIC); format: cell-based; details: solid medium; anaerobic; read-out: Minimum inhibiting concentration
From the text: as §1

[9] = test system: Klelsiella pneumoniae LRP 54; assay: Bacteriostatic power in solid medium (MIC); format: cell-based; details: solid medium; read-out: Minimum inhibiting concentration
From the text: as §1

[10] = test system: Neisseria gonorrhoeae ATCC 19424 LRP 214; assay: Bacteriostatic power in solid medium (MIC); format: cell-based; details: Neisseria gonorrhoeae, ATCC19424; solid medium; read-out: Minimum inhibiting concentration
From the text: as §1

[11] = test system: Streptococcus pneumoniae ATCC 6303 LRP 52; assay: Bacteriostatic power in solid medium (MIC); format: cell-based; details: Streptococcus pneumoniae, ATCC6303; solid medium; read-out: Minimum inhibiting concentration
From the text: as §1

Shigella sonnei LRP 5 = assay: Bacteriostatic power in solid medium (MIC); format: cell-based; details: LRP5, read-out: Minimum inhibiting concentration
From the text: as §1

[12] = test system: Acholeplasma laidlawii ATCC 23206 LRP 204; assay: Bacteriostatic power in solid medium (MIC); format: cell-based; details: Acholeplasma laidlawii, ATCC23206; solid medium; read-out: Minimum inhibiting concentration
From the text: as §1

Bacillus subtilis LRP 25 = assay: Bacteriostatic power in solid medium (MIC); format: cell-based; details: Bacillus subtilis, LRP25; solid medium; read-out: Minimum inhibiting concentration
From the text: as §1

[13] = test system: Staphylococcus aureus ATCC 14154 LRP 78; assay: Bacteriostatic power in solid medium (MIC); format: cell-based; details: Staphylococcus aureus, ATCC14154; solid medium; Erythromycin resistant; read-out: Minimum inhibiting concentration
From the text: as §1

[14] = test system: Streptococcus pyogenes ATCC 8668 LRP 34; assay: Bacteriostatic power in solid medium (MIC); format: cell-based; details: Streptococcus pyogenes, ATCC8668; solid medium; read-out: Minimum inhibiting concentration
From the text: as §1

[15] = test system: Proteus vulgaris ATCC 6380 LRP 13; assay: Bacteriostatic power in solid medium (MIC); format: cell-based; details: Proteus vulgaris, ATCC6380; solid medium; read-out: Minimum inhibiting concentration
From the text: as §1

[16] = test system: Staphylococcus aureus ATCC 6538P LRP 14; assay: Bacteriostatic power in solid medium (MIC); format: cell-based; details: Staphylococcus aureus, ATCC6538P; solid medium; Penycilline resistant; read-out: Minimum inhibiting concentration
From the text: as §1

[17] = test system: Streptococcus pyogenes ATCC 8668 LRP 197; assay: Bacteriostatic power in solid medium (MIC); format: cell-based; details: Streptococcus pyogenes, ATCC8668; solid medium; read-out: Minimum inhibiting concentration
From the text: as §1

[18] = test system: Micrococcus luteus ATCC 15957 LRP 193; assay: Bacteriostatic power in solid medium (MIC); format: cell-based; details: Micrococcus luteus, ATCC15957; solid medium; Erythromycin resistant; read-out: Minimum inhibiting concentration
From the text: as §1

[19] = test system: Pseudomonas aeruginosa LRP 9; assay: Bacteriostatic power in solid medium (MIC); format: cell-based; details: Pseudomonas aeruginosa, LRP9; solid medium; read-out: Minimum inhibiting concentration
From the text: as §1

[20] = test system: Staphylococcus aureus ATCC 6538P LRP 39; assay: Bacteriostatic power in solid medium (MIC); format: cell-based; details: Staphylococcus aureus, ATCC6538P; solid medium; read-out: Minimum inhibiting concentration
From the text: as §1

[21] = test system: Streptococcus pneumoniae ATCC 6303 LRP 35; assay: Bacteriostatic power in solid medium (MIC); format: cell-based; details: Streptococcus pneumoniae, ATCC6303; solid medium; read-out: Minimum inhibiting concentration
From the text: as §1

[22] = test system: Bacteroides fragilis ATCC 23745 LRP 205; assay: Bacteriostatic power in solid medium (MIC); format: cell-based; details: Bacteroides fragilis, ATCC23745; solid medium; anaerobic; read-out: Minimum inhibiting concentration
From the text: as §1

[23] = test system: Haemophilus influenzae ATCC 19418 LRP 213; assay: Bacteriostatic power in solid medium (MIC); format: cell-based; details: Haemophilus influenzae, ATCC19418; solid medium; read-out: Minimum inhibiting concentration
From the text: as §1

[24] = test system: Corynebacterium diphteriae LRP 24; assay: Bacteriostatic power in solid medium (MIC); format: cell-based; details: Corynebacterium, LRP24; solid medium; read-out: Minimum inhibiting concentration
From the text: as §1

[25] = test system: Streptococcus faecalis LRP 7; assay: Bacteriostatic power in solid medium (MIC); format: cell-based; details: Enterococcus faecalis, LRP7; solid medium; read-out: Minimum inhibiting concentration
From the text: as §1

[26] = test system: Streptococcus pneumoniae ATCC 6303 LRP 53; assay: Bacteriostatic power in solid medium (MIC); format: cell-based; details: Streptococcus pneumoniae, ATCC6303; solid medium; read-out: Minimum inhibiting concentration
From the text: as §1

[27] = test system: Streptococcus faecalis subsp. zymogenes ATCC 12958 LRP 61; assay: Bacteriostatic power in solid medium (MIC); format: cell-based; details: Enterococcus faecalis, ATCC12958; solid medium; read-out: Minimum inhibiting concentration
From the text: as §1

[28] = test system: Micrococcus luteus ATCC 9341 LRP 6; assay: Bacteriostatic power in solid medium (MIC); format: cell-based; details: Micrococcus luteus, ATCC9341; solid medium; read-out: Minimum inhibiting concentration
From the text: as §1

[29] = test system: Mycoplasma hominis I ATCC 14027 LRP 211; assay: Bacteriostatic power in solid medium (MIC); format: cell-based; details: Metamycoplasma hominis, ATCC14027; solid medium; read-out: Minimum inhibiting concentration
From the text: as §1

[30] = test system: Streptococcus faecalis subs. zymogenes LRP 61; assay: Minimum bactericidal concentration (MBC); format: cell-based
From the text: (§2) the bacterial power, expressed as the minimum bactericidal power (MBC) against some Gram positive aerobic stocks (table 5).

[31] = test system: Staphylococcus aureus ATCC 6538 P LRP 39; assay: Minimum bactericidal concentration (MBC); format: cell-based
From the text: as §2

[32] = test system: Streptococcus pyogenes ATCC 8668 LRP 34; assay: Minimum bactericidal concentration (MBC); format: cell-based
From the text: as §2

[33] = test system: Streptococcus pneumoniae ATCC 6303 LRP 35; assay: Minimum bactericidal concentration (MBC); format: cell-based
From the text: as §2

[34] = test system: Corynebacterium diphteriae LRP 24; assay: Minimum bactericidal concentration (MBC); format: cell-based
From the text: as §2

CC[C@H]1OC(=O)[C@H](C)[C@@H](O[C@H]2C[C@@](C)(OC)[C@@H](O)[C@H](C)O2)[C@H](C)[C@@H](O[C@@H]2O[C@H](C)C[C@H](N(C)C)[C@H]2O)[C@](C)(O)C[C@](C)(F)C(=O)[C@H](C)[C@@H](O)[C@H]1C [P-80203, (8S)-8-fluoroerythromycin B]
MIC (Salmonella typhy LRP 8): 25 µg/mL (≈ 34 µM) | MIC [1]: 0.39 µg/mL (≈ 0.53 µM) | MIC [2]: 0.39 µg/mL (≈ 0.53 µM) | MIC [3]: 0.097 µg/mL (≈ 0.132 µM) | MIC [4]: 0.024 µg/mL (≈ 0.0326 µM) | MIC [5]: 0.049 µg/mL (≈ 0.0666 µM) | MIC [6]: 0.012 µg/mL (≈ 0.0163 µM) | half-life ([7]; pH 2): 3 h | half-life ([7]; pH 3): 45 h | MIC (Escherichia coli LRP 50): 25 µg/mL (≈ 34 µM) | MIC [8]: 3.12 µg/mL (≈ 4.24 µM) | MIC [9]: 25 µg/mL (≈ 34 µM) | MIC [10]: 0.097 µg/mL (≈ 0.132 µM) | MIC [11]: 0.024 µg/mL (≈ 0.0326 µM) | MIC (Shigella sonnei LRP 5): 25 µg/mL (≈ 34 µM) | MIC [12]: 0.195 µg/mL (≈ 0.265 µM) | MIC (Bacillus subtilis LRP 25): 0.049 µg/mL (≈ 0.0666 µM) | MIC [13]: 25 µg/mL (≈ 34 µM) | MIC [14]: 0.024 µg/mL (≈ 0.0326 µM) | MIC [15]: 25 µg/mL (≈ 34 µM) | MIC [16]: 0.097 µg/mL (≈ 0.132 µM) | MIC [17]: 0.049 µg/mL (≈ 0.0666 µM) | MIC [18]: 25 µg/mL (≈ 34 µM) | MIC [19]: 25 µg/mL (≈ 34 µM) | MIC [20]: 0.097 µg/mL (≈ 0.132 µM) | MIC [21]: 0.049 µg/mL (≈ 0.0666 µM) | MIC [22]: 0.195 µg/mL (≈ 0.265 µM) | MIC [23]: 6.25 µg/mL (≈ 8.49 µM) | MIC [24]: 0.006 µg/mL (≈ 0.00815 µM) | MIC [25]: 0.195 µg/mL (≈ 0.265 µM) | MIC [26]: 0.024 µg/mL (≈ 0.0326 µM) | MIC [27]: 0.195 µg/mL (≈ 0.265 µM) | MIC [28]: 0.012 µg/mL (≈ 0.0163 µM) | MIC [29]: 25 µg/mL (≈ 34 µM) | MBC/MIC [30]: 8 | MBC ([30]; Enterococcus faecalis, read-out: Minimum bactericidal concentration (MBC)): 3.12 µg/mL (≈ 4.24 µM) | MBC/MIC [31]: 32 | MBC ([31]; Staphylococcus aureus, ATCC6538, read-out: Minimum bactericidal concentration (MBC)): 3.12 µg/mL (≈ 4.24 µM) | MBC/MIC [32]: 8 | MBC ([32]; Streptococcus pyogenes, ATCC8668, read-out: Minimum bactericidal concentration (MBC)): 0.195 µg/mL (≈ 0.265 µM) | MBC/MIC [33]: 1 | MBC ([33]; Streptococcus pneumoniae, ATCC6303, read-out: Minimum bactericidal concentration (MBC)): 0.049 µg/mL (≈ 0.0666 µM) | MBC/MIC [34]: 4 | MBC ([34]; Corynebacterium, LRP24, read-out: Minimum bactericidal concentration (MBC)): 0.049 µg/mL (≈ 0.0666 µM)
